These compounds were tested on male rats (Sprague Dawley) (assay: Maximal electroshock seizure (MEST) threshold test, rat model). Conditions: 2 mg/kg p.o. at 2 h, suspended in 1% methyl cellulose.
Format: in vivo
Description: The maximal electroshock seizure (MEST) threshold test in rodents is particularly sensitive for detecting potential anticonvulsant properties^1. In this model, anticonvulsant agents elevate the threshold to electrically-induced seizures whilst proconvulsants lower the seizure threshold.
The threshold for maximal (tonic hindlimb extension) electroshock seizures in male rats (Sprague Dawley, 80–150 g, 6 weeks old) was determined by a Hugo Sachs Electronik stimulator which delivered a constant current (0.3 sec duration; from 1–300 mA in steps of 5–20 mA). The procedure is similar to that outlined above for mouse and full details are as published by Upton et al,.^4
The percentage increase or decrease in CC50 for each group compared to the control is calculated. Drugs are suspended in 1% methyl cellulose.

Compared with `CCOc1ccc(C(=O)Nc2cc(Cl)c3c(c2)CNCC3)cc1Cl` [Example 2, N-(5-Chloro-1,2,3,4-tetrahydroisoquinolin-7-yl)-3-chloro-4-ethoxy benzamide], `CCOc1ccc(C(=O)Nc2cc(Cl)c3c(c2)CNCC3)cc1Br` [Example 7, N-(5-Chloro-1,2,3,4-tetrahydroisoquinolin-7-yl)-3-bromo-4-ethoxybenzamide] is higher in “percentage increase in CC50 compared to the control” value (“percentage increase in CC50” below): 390% for the first, 410% for the second.

First: CC(C)c1ccc(C(=O)Nc2cc(Cl)c3c(c2)CNCC3)cc1C#N [Example 3, N-(5-Chloro-1,2,3,4-tetrahydroisoquinolin-7-yl)-3-cyano-4-iso-propyl benzamide]
Second: COc1ccc(C(=O)Nc2cc(Cl)c3c(c2)CNCC3)cc1C#N [Example 5, N-(5-Chloro-1,2,3,4-tetrahydroisoquinolin-7-yl)-3-cyano-4-methoxybenzamide]
The “percentage increase in CC50” value of the first is lower: 140% for the first, 210% for the second.

For `CC(=O)c1cc(C(=O)Nc2cc(Cl)c3c(c2)CNCC3)ccc1OC(C)C` [Example 8, N-(5-Chloro-1,2,3,4-tetrahydroisoquinolin-7-yl)-3-acetyl-4-iso-propoxybenzamide], the “percentage increase in CC50” value was 114%.

Reference: patent US7105536B2, “Compounds” (SmithKline Beecham plc, priority 1999, dated 2006)
